Source: PMC11889359, “Site-Specific Competitive Kinase Inhibitor Target Profiling Using Phosphonate Affinity Tags” (Molecular & Cellular Proteomics : MCP, 2025)
Values joined by “and” are separate entries in the source; they are usually repeats but may differ in a detail not shown here. Equal entries are not always repeated. Where two headings read alike, the source gives them in different places.

Tests used:
EphA2 [1] = tested on: EphA2; set-up: method as in PMID 29928781; conditions: read-out: Literature value for EphA2, NanoBRET assay; cited from earlier work
EphA2 [2] = target: EphA2; set-up: method as in PMID 29928781; conditions: read-out: Literature value for EphA2, kinobeads; cited from earlier work
EphA2 [3] = target: EphA2; set-up: method as in PMID 29928781; conditions: read-out: Literature value for EphA2, microscale thermo-phoresis; cited from earlier work
EphB4 [4] = tested on: EphB4; set-up: method as in PMID 20803239; conditions: cellular autophosphorylation; cited from earlier work
[5] = target: T1, proto-oncogene tyrosine-protein kinase src (SRC) (Homo sapiens, UniProt P12931); assay: Competitive site-specific PhosID-ABPP with XO44 in intact A549 cells; format: binding; conditions: 0.1 nM to 25 µM inhibitor, trypsin and pepsin
T1 construct: endogenous in cells; host or cells: cultured cells treated intact (A549 per the earlier reading)
Procedure: (§1) 1e^6 cells were plated in 15 cm plates (Greiner) 3 days before treatment and kept in a humidified atmosphere with 5% CO2 at 37 °C. The growth medium was replaced by 10 ml treatment [DMEM with 0.5% FBS and 100 units/ml PS supplemented with the corresponding concentration of NVP-BHG712 (Sigma-Aldrich) or DMSO] and incubated at 37 °C, 5% CO2 for 3 h. Then, 10 μl 25 mM XO44 (PF-6808472, Sigma-Aldrich) was added directly to the medium and swirled to enable dissolution. Subsequently, the cells were incubated at 37 °C, 5% CO2 for 4 h. The samples for Supplemental Fig. S1 were generated by directly incubating with 25 μM XO44-containing growth medium for 4 h.
(§2) After treatment, the cells were washed with ice-cold DPBS and harvested using a cell scraper in 1 ml ice-cold DPBS. Then, the cell suspension was spun down at 2000g for 1 min, and the supernatant was aspirated. The cell pellet was snap-frozen in liquid nitrogen and stored at −80 °C for later use.
(§3) Cell pellets were lysed in 500 μl lysis buffer per 15 cm plate of cells, consisting of 50 mM Hepes (Sigma-Aldrich, pH 7.5), 0.5% NP-40 (Applichem), 0.2% SDS (Gen-Apex), 2 mM MgCl2 (Sigma-Aldrich), 10 mM NaCl (Merck), 1× protease inhibitor cocktail (Roche), and 0.5 μl/ml Benzonase (Millipore). Cell lysates were incubated at room temperature for 15 min to allow DNA cleavage. Cell debris and DNA were spun down for 30 min at 20,567g at 16 °C. The supernatant was collected, and the protein concentration was determined by a bicinchoninic acid assay (Thermo Fisher Scientific).
(§4) The copper(I)-catalyzed azide-alkyne cycloaddition (CuAAC) was performed on cellular lysates in 2 M urea (Merck) in 1× 50 mM Hepes (pH 7.5). CuAAC components were added in the following order: 5 mM tris(3-hydroxypropyltriazolylmethyl)amine (Lumiprobe), 2.5 mM CuSO4 5·H2O (Sigma-Aldrich), 500 μM phosphonate-azide (prepared as described in van Bergen et al., 2023 ([28])), and 25 mM sodium ascorbate (Sigma-Aldrich). Samples were incubated for 2 h at room temperature while rotating. Methanol–chloroform precipitation was performed to remove the CuAAC components, and the air-dried pellets were resuspended in 8 M urea and sonicated in a bioruptor (Diagenode) with the high amplitude setting for 10 min with cycles of 30 s on and 30 s off.
(§5) Clicked and dissolved protein samples were diluted to 4M urea with 50 mM ammonium bicarbonate (pH 8, AmBic, Sigma-Aldrich). The proteins were reduced with 4 mM DTT (Sigma-Aldrich) for 60 minutes at room temperature and alkylated in the dark using 8 mM iodoacetamide (Sigma-Aldrich) for 30 min. Residual iodoacetamide was quenched by adding DTT to a final concentration of 4 mM.
(§6) Next, samples were diluted 2× with 50 mM AmBic and digested with LysC (1:75 enzyme to protein ratio, Wako) for 4 h at 37 °C. Finally, proteins were digested overnight using Trypsin (1:50, enzyme to protein ratio, Sigma-Aldrich) at 37 °C. Proteolysis with chymotrypsin was performed similarly to the trypsin digestion, only replacing both proteolytic enzymes with α-chymotrypsin (bovine, 1:75, enzyme to protein ratio, Sigma-Aldrich) overnight at 37 °C. Digested material was desalted using 3 cc C18 Seppak cartridges (Waters) and air dried using a vacuum centrifuge.
(§7) For the digestion with pepsin, protease incubation (Porcine, 1:50, enzyme to protein ratio, Sigma-Aldrich) was performed for 4 h at 37 °C in 40 mM HCl (pH 2). Digested material was directly desalted using 3 cc C18 Seppak cartridges and air dried using a vacuum centrifuge.
(§8) Samples were dephosphorylated prior to immobilized metal affinity chromatography (IMAC) enrichment. Desalted peptides were dissolved in 1× rCutSmart buffer (pH 8, New England BioLabs) and incubated with 50 units of alkaline phosphatase (calf intestinal, QuickCIP, New England BioLabs) overnight at 37 °C while shaking. After dephosphorylation, all peptides were again desalted using 3 cc C18 Seppak cartridges and air-dried using a vacuum centrifuge. […]

EphA2 [6] = target: T2, EphA2 (Homo sapiens, UniProt P29317); assay: as above; format: binding; conditions: apparent IC50, 3 h inhibitor then 25 μM XO44 4 h
T2 construct: endogenous in cells; host or cells: cultured cells treated intact (A549 per the earlier reading)
T2 sequence (P29317 24-976): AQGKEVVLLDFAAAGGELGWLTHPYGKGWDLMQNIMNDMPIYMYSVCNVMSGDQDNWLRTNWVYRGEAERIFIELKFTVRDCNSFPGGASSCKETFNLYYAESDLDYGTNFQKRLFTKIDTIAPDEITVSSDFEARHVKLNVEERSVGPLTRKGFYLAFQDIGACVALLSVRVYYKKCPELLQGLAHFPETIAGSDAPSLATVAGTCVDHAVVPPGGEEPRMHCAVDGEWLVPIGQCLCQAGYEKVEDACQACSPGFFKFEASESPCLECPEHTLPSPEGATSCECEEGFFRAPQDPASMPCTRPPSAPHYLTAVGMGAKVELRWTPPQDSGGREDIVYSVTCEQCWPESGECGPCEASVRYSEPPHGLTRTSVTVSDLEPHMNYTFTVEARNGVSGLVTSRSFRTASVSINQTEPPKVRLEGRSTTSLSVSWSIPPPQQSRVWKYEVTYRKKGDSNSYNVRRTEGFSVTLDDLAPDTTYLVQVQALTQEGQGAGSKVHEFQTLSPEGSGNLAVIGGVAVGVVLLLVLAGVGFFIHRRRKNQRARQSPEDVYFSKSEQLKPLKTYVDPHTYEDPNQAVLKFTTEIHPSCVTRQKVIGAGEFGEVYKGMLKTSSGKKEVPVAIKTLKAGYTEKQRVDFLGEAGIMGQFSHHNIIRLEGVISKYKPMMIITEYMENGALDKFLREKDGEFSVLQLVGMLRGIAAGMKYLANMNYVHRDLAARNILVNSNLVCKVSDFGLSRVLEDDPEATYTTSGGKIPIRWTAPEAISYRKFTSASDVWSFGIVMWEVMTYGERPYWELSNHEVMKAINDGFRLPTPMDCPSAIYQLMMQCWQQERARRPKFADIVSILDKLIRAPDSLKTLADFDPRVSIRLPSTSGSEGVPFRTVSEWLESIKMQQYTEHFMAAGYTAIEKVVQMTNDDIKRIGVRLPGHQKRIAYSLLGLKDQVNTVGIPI
Procedure: as §1, §2, §3, §4, §5, §6, §7, §8

EphB4 [7] = target: T3, EphB4 (Homo sapiens, UniProt P54760); assay: as above; format: binding; conditions: apparent IC50, 3 h inhibitor then 25 μM XO44 4 h, n = 3, read-out: IC50 EphB4;K647
T3 construct: endogenous in cells; host or cells: cultured cells treated intact (A549 per the earlier reading)
T3 sequence (P54760 16-987): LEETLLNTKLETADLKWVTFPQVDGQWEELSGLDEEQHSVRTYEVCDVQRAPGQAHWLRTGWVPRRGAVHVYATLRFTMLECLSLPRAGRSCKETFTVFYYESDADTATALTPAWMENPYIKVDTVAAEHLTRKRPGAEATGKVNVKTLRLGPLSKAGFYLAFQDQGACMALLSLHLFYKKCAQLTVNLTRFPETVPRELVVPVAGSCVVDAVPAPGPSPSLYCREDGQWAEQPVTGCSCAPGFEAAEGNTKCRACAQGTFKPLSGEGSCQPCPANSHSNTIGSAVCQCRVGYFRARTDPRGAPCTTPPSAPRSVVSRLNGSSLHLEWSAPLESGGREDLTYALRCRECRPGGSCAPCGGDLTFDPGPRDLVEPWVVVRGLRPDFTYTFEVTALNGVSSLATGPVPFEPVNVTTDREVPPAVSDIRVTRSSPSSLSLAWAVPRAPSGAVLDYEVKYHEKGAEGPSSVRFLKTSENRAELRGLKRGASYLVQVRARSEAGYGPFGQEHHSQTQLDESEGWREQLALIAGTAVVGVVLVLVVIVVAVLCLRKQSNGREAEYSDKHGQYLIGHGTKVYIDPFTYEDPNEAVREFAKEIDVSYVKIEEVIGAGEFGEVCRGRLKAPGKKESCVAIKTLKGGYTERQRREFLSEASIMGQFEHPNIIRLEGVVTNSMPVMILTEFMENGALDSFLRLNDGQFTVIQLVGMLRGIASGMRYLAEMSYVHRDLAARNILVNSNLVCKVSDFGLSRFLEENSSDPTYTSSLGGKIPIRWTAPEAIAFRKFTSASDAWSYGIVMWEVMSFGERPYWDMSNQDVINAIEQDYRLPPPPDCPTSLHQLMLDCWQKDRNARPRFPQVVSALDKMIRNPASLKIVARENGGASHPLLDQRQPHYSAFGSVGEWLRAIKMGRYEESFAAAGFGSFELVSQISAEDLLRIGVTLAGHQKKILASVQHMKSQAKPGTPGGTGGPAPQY
Procedure: as §1, §2, §3, §4, §5, §6, §7, §8

LYN = target: T4, LYN (Homo sapiens, UniProt P07948); assay: as above; format: binding; conditions: apparent IC50, pepsin-based analysis, n = 3, read-out: IC50 LYN;K275
T4 construct: endogenous in cells; host or cells: cultured cells treated intact (A549 per the earlier reading)
T4 sequence (P07948 whole entry): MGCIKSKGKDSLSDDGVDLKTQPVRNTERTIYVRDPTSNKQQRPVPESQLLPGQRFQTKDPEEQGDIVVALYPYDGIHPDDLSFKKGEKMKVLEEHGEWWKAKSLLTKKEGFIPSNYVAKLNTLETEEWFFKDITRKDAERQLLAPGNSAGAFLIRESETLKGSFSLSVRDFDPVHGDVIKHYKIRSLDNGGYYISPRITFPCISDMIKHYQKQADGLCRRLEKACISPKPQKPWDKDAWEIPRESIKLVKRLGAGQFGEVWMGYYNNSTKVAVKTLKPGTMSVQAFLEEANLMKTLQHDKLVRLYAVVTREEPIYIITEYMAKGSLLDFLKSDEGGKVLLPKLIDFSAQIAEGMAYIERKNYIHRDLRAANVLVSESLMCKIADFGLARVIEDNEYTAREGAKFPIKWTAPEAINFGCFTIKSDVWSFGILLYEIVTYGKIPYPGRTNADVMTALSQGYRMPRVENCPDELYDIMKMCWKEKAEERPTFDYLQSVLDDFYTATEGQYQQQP
Procedure: as §1, §2, §3, §4, §5, §6, §7, §8

## NVP-BHG712
EphA2 [1]
  IC50: 0.003 µM
EphA2 [2]
  Kd: 0.24 µM
EphA2 [3]
  Kd: 0.013 µM
EphB4 [4]
  IC50: 0.025 µM
[5]
  Interaction with ATP-binding pocket, SRC;K298 signal across the concentration range: do not interact
EphA2 [6]; pepsin, n = 3, read-out: IC50 EphA2;K646, peptic analysis
  IC50: 0.0205 µM
EphA2 [6]; trypsin, n = 3, read-out: IC50 EphA2;K646, tryptic analysis
  IC50: 0.017 µM
EphB4 [7]
  IC50: 0.02 µM and 0.0202 µM
LYN
  IC50: 13.4 µM
